Results as given in ChEMBL document CHEMBL1137543, “Phenylimidazole derivatives as specific inhibitors of bacterial enoyl-acyl carrier protein reductase FabK” (Bioorg Med Chem, 2007).
Converted amounts (≈) assume the structure as drawn.

How the values were obtained:
Streptococcus pneumoniae = assay: Antibacterial activity against Streptococcus pneumoniae KU197 mutant by broth microdilution method; assay type: functional
[1] = target: T1, Enoyl-[acyl-carrier-protein] reductase [NADH] FabI (Escherichia coli K-12, UniProt P0AEK4); assay: Inhibition of Escherichia coli enoyl-ACP reductase FabI
T1 sequence (P0AEK4 whole entry): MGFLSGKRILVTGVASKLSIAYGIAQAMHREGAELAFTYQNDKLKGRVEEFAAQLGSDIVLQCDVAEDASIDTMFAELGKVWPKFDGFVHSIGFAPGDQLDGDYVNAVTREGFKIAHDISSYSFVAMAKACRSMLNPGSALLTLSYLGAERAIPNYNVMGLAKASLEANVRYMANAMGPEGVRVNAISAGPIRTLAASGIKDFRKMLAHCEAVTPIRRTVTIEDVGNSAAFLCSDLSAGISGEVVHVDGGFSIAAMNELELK

[2] = target: T2, Enoyl-(Acyl-carrier-protein) reductase (Streptococcus pneumoniae, UniProt Q9FBC5); assay: Inhibition of Streptococcus pneumoniae enoyl-ACP reductase FabK
T2 sequence (Q9FBC5 whole entry): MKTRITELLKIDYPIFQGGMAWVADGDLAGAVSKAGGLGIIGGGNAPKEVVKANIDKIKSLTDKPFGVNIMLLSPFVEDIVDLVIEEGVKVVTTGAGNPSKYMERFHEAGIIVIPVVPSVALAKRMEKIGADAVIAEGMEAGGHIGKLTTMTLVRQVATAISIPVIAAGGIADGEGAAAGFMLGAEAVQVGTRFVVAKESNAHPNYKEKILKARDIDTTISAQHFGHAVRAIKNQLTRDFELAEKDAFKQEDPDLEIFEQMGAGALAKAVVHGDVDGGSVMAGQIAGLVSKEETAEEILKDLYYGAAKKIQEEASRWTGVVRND

K562 = assay: Cytotoxicity against human K562 cells; assay type: functional, cell-based

Row | SMILES | MIC (Streptococcus pneumoniae) [µg/mL] | IC50 [1] [µM] | IC50 [2] [µM] | IC50 (K562) [µM]
1 | O=C(NCc1nc(-c2ccccc2)c[nH]1)Nc1ncc(Sc2ccc(C(=O)O)cc2)s1 | 8 (≈ 17.7 µM) | > 32 | 0.098 | 
2 | O=C(NCc1ncc(-c2ccc(Br)cc2)[nH]1)Nc1ncc(Sc2ccccn2)s1 | 0.25 (≈ 0.513 µM) | > 32 |  | > 20
3 | Oc1cc(Cl)ccc1Oc1ccc(Cl)cc1Cl [TRICLOSAN] |  |  | > 32 | 
4 | O=C(NCc1ncc(-c2ccc(Cl)c(Cl)c2)[nH]1)Nc1ncc(Sc2ccccn2)s1 | 1 (≈ 2.09 µM) | > 32 | 0.0037 | 
5 | O=C(CSc1nc2ccccc2[nH]1)Nc1nc2ccccc2s1 | > 32 | > 32 | > 32 | 
6 | O=C(NCc1ncc(-c2ccccc2)[nH]1)Nc1ncc(Sc2ccccn2)s1 | 2 (≈ 4.9 µM) | > 32 |  | 
7 | CS(=O)(=O)c1ccc2nc(NC(=O)NCc3nc(-c4ccccc4)c[nH]3)sc2c1 | 0.5 (≈ 1.17 µM) | > 32 | 0.088 | 
8 | CS(=O)(=O)c1ccc2nc(NC(=O)NCc3nc4ccccc4[nH]3)sc2c1 | 4 (≈ 9.96 µM) | > 32 | 0.74 | 
9 | O=C(NCc1nc(-c2ccccc2)c[nH]1)Nc1ncc(-c2ccccc2)s1 | 4 (≈ 10.7 µM) | > 32 | 0.38 | 
10 | O=C(NCc1nc2ccccc2[nH]1)Nc1nc2ccc(F)cc2s1 |  | > 32 | 6.4 | 
11 | COc1cccc2sc(NC(=O)NCc3nc4ccccc4[nH]3)nc12 |  | > 32 | > 32 | 
12 | CS(=O)(=O)c1ccc2nc(NC(=O)NCc3ccc(-c4ccccn4)s3)sc2c1 | > 32 | > 32 | 3.4 | 
13 | O=C(CO/N=C/c1cccc([N+](=O)[O-])c1)Nc1nc2ccccc2s1 | > 32 | > 32 | 1.1 | 
14 | O=C(NCc1nc2ccccc2[nH]1)Nc1nc2ccccc2s1 | 32 (≈ 99 µM) | > 32 | 6.9 | 
15 | N#Cc1ccc2nc(NC(=O)NCc3nc4ccccc4[nH]3)sc2c1 | 8 (≈ 23 µM) | > 32 | 4.5 | 
16 | COc1ccc2sc(NC(=O)NCc3nc4ccccc4[nH]3)nc2c1 |  | > 32 | > 32 | 
17 | CS(=O)(=O)c1ccc2nc(NC(=O)NCc3cccs3)sc2c1 | > 32 | > 32 | 30 | 
18 | CS(=O)(=O)c1ccc2nc(NC(=O)NCc3cccnc3)sc2c1 | > 32 | > 32 | 23 | 
19 | O=C(Nc1nc2ccccc2s1)OCc1nc2ccccc2[nH]1 | > 32 | > 32 | > 32 | 
20 | COc1ccc2nc(NC(=O)NCc3nc4ccccc4[nH]3)sc2c1 | 16 (≈ 45.3 µM) | > 32 | 2 | 
21 | CS(=O)(=O)c1ccc2nc(NC(=O)NCCc3cnc[nH]3)sc2c1 |  | > 32 | > 32 | 
22 | NC(=O)c1ccc(Sc2cnc(NC(=O)NCc3nc(-c4ccccc4)c[nH]3)s2)cc1 | 2 (≈ 4.44 µM) | > 32 | 0.037 | 
23 | O=C(NCc1ncc(-c2cccc(Br)c2)[nH]1)Nc1ncc(Sc2ccccn2)s1 | 16 (≈ 32.8 µM) | > 32 |  | 
24 | O=C(CSc1nc2ccccc2[nH]1)NCc1nc2ccccc2s1 | > 32 | > 32 | > 32 | 
25 | Cc1ccc2nc(NC(=O)NCc3nc4ccccc4[nH]3)sc2c1 | 16 (≈ 47.4 µM) | > 32 | 2.6 | 
26 | O=C(NCc1nc(-c2ccccc2)c[nH]1)Nc1nc(-c2ccccc2)cs1 |  | > 32 | > 32 | 
27 | O=C(NCc1nc(-c2ccccc2)c[nH]1)Nc1ncc(Sc2ccccc2)s1 | 2 (≈ 4.91 µM) | > 33 | 0.037 | 
